Source: PMC9293649 (The Journal of Biological Chemistry, 2022)

T1: DarB (Bacillus subtilis, UniProt O31698)
T1 sequence (O31698 1-147): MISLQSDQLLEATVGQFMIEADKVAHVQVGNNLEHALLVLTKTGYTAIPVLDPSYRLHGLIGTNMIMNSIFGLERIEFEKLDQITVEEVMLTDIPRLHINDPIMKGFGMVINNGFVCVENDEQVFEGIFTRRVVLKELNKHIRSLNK

B1: DarB (c-di-AMP receptor protein, CBS domain protein) of Bacillus subtilis, wild type (natural protein)
chain: T1 sequence (O31698 1-147)

Experiments:
[1] = target: T1, DarB; test: ITC and crystal structure; format: binding
[2] = target: the molecule itself; test: crystal structure

| Molecule | Kd [1] [µM] | stoichiometry N [2] |
| --- | --- | --- |
| Nc1ncnc2c1ncn2[C@@H]1O[C@H](COP(=O)(O)O)[C@@H](O)[C@H]1O [AMP] | 91.1 |  |
| B1 |  | 2 |
